Structures are written as SMILES. Like-named read-outs stand apart in the source and are kept apart here.

Data set [1] deals with T1, Cav1.3 L-type Ca channels (Rattus norvegicus, UniProt P27732).
T1 construct: expressed in transfected cells; host or cells: HEK293
In words: FLIPR Fluo-8 calcium assay, Cav1.3 channel inhibition in HEK293 cells. Format: cell-based.

Data set [2] addresses Cav1.2 L-type Ca channels (Oryctolagus cuniculus, UniProt P15381). Briefly: FLIPR Fluo-8 calcium assay, Cav1.2 channel inhibition in HEK293 cells.
The mark [3] stands for this setting: IC50 (μM) CaV1.3, first library, FLIPR, HEK293, value (±SD).
[4] abbreviates: IC50 (μM) Cav1.3, Table 4, 12 concentration points (0.1 nM~100 μM) in duplicate.
Where [5] appears, read: Table 4, Cav1.3 relative to Cav1.2 from IC50 values.
The mark [6] stands for this setting: first library, ratio of IC50 Cav1.2 to Cav1.3.
[7] abbreviates: IC50 (μM) CaV1.2, first library, FLIPR, HEK293, value (±SD).
Setting [8] is: IC50 (μM) Cav1.2, Table 4, 12 concentration points (0.1 nM~100 μM) in duplicate.
Where [9] appears, read: IC50 (μM) Cav1.3, second library, FLIPR, HEK293, value (±SD).
Setting [10] is: second library, ratio of IC50 Cav1.2 to Cav1.3.
[11] abbreviates: IC50 (μM) Cav1.2, second library, FLIPR, HEK293, value (±SD).
[12] abbreviates: IC50 (μM) Cav1.3, third library, FLIPR, HEK293, value (±SD).
Where [13] appears, read: third library, ratio of IC50 Cav1.2 to Cav1.3.
[14] abbreviates: IC50 (μM) Cav1.2, third library, FLIPR, HEK293, value (±SD).

Chain of Cav1.2 L-type Ca channels (P15381 whole entry): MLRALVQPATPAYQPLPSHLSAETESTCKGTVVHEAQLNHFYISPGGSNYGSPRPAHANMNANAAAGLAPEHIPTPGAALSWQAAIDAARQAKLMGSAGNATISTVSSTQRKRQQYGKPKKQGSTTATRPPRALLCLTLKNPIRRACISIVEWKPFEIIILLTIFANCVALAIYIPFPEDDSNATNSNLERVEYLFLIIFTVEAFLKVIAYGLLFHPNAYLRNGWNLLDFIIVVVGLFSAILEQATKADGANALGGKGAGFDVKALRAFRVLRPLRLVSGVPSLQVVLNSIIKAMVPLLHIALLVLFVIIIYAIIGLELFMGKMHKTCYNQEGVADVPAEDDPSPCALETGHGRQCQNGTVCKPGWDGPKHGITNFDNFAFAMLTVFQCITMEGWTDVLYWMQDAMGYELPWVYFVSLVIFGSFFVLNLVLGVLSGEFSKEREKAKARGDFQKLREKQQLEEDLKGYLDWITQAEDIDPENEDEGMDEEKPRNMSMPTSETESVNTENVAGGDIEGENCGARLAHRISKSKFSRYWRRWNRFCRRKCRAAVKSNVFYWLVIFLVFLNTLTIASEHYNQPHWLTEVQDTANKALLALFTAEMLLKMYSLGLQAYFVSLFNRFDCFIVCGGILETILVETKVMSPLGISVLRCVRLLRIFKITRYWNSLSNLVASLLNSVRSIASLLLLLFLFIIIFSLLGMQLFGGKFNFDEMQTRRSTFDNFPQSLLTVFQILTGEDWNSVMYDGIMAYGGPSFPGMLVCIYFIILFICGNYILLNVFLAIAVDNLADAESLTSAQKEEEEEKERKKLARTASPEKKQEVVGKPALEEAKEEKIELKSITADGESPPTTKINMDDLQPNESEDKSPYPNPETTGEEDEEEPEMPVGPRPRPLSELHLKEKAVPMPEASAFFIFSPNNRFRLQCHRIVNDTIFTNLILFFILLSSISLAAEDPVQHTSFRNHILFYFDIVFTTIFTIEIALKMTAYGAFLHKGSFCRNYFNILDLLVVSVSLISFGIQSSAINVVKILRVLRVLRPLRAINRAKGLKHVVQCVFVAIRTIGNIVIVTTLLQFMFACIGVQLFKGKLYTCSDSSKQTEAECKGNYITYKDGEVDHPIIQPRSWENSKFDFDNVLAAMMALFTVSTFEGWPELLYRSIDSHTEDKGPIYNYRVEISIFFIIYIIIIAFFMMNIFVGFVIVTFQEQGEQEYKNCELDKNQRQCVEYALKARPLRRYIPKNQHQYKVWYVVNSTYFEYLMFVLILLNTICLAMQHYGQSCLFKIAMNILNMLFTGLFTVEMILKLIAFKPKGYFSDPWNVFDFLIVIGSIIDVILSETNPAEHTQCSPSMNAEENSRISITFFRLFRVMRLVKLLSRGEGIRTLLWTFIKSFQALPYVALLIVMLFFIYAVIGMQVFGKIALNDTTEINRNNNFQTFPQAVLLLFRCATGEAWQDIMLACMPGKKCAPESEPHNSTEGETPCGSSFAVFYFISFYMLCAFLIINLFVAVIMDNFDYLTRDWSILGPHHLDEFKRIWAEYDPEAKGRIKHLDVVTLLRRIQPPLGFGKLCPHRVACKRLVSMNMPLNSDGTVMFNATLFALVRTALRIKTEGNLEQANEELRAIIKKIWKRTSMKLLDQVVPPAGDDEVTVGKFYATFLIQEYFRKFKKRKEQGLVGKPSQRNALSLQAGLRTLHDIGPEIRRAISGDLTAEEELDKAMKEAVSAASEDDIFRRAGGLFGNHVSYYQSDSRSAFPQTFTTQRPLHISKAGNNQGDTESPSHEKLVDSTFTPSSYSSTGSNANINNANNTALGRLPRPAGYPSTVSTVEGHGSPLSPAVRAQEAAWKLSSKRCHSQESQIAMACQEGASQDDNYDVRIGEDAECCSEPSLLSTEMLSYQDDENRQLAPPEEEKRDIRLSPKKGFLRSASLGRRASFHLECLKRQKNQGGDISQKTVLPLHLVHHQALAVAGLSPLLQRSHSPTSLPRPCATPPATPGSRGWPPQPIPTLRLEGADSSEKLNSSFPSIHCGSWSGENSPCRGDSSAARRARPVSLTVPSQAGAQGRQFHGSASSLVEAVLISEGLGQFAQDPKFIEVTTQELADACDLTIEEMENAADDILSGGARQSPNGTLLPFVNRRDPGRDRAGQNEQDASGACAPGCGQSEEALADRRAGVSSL
Chain of Cav1.2 L-type Ca channels (P54284 whole entry partner): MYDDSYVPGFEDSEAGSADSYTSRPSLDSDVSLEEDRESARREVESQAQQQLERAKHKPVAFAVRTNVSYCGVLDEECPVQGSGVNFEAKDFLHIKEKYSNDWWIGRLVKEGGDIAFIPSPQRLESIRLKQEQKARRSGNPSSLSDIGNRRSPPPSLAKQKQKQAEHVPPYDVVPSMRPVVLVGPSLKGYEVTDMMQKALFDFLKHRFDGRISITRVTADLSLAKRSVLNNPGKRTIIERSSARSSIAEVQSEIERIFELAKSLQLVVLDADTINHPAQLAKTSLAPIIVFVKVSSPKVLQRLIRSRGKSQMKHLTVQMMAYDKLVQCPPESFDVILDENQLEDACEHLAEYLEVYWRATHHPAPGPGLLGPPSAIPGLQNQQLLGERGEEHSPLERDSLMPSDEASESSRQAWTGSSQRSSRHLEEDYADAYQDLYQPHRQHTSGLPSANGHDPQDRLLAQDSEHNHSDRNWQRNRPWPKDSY
Chain of Cav1.2 L-type Ca channels (P54289 25-956 partner limits assumed): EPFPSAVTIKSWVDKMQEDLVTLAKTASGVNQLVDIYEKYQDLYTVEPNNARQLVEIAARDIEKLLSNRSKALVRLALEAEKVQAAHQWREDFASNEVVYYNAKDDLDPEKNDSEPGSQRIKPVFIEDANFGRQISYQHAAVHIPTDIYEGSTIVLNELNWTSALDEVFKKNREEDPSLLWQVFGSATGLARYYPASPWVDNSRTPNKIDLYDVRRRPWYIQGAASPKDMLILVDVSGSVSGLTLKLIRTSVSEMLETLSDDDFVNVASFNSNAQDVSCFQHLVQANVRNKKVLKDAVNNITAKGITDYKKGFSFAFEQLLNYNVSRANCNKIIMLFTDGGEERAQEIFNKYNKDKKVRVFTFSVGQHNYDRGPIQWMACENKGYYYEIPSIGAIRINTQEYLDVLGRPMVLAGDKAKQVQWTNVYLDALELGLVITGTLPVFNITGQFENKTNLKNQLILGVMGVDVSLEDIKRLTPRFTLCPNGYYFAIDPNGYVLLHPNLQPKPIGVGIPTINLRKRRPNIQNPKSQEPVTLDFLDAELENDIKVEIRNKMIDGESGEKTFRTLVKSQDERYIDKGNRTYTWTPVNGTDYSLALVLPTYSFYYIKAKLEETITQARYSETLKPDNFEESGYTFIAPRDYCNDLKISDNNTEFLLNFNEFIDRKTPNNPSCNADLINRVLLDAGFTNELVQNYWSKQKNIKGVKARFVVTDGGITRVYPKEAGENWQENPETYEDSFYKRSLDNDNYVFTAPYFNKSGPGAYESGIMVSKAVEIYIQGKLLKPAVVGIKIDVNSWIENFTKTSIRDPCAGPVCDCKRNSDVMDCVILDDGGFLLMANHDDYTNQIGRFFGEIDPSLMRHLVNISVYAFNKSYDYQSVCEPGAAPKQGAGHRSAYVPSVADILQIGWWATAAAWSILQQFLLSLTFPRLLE
Chain of Cav1.2 L-type Ca channels (P54289 957-1103 partner limits assumed): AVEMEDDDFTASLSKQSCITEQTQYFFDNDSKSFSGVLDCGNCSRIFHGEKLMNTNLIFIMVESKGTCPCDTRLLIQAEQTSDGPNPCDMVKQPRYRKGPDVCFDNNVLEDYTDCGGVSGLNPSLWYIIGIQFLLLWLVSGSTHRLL

The compound `O=C1CC(=O)N(C2CCCCC2)C(=O)N1CCc1ccc(Cl)cc1` [Compound 1, N-(4-chlorophenethyl)-N′-cyclohexyl-pyrimidine-2,4,6-(1H,3H,5H)-trione] displayed a melting point of 146 to 148 °C. In addition, the IC50 in data set [1] (setting [3]) came to 1.1 µM. Also, in data set [1] (setting [4]), the IC50 turned out to be 1.1 µM. In addition, in data set [1] (setting [5]), the Selectivity was found to be 35. Also, the Selectivity in data set [1] (setting [6]) turned out to be 35.1. The IC50 in data set [2] (setting [7]) came to 38.8 µM. Also, the IC50 in data set [2] (setting [8]) turned out to be 38.8 µM.

As for `O=C1CC(=O)N(C2CCCC2)C(=O)N1CCCCc1ccccc1` [Compound 2, N-cyclopentyl-N′-(4-phenylbutyl)-pyrimidine-2,4,6-(1H,3H,5H)-trione], the melting point lay in the range of 85 to 87 °C. For the same compound, the IC50 in data set [1] (setting [3]) turned out to be 1.3 µM. Also, the IC50 in data set [1] (setting [4]) worked out at 1.3 µM. For the same compound, in data set [1] (setting [5]), the Selectivity is listed as 34. The Selectivity in data set [1] (setting [6]) turned out to be 33.7. In data set [2] (setting [7]), the IC50 came to 43.8 µM. The IC50 in data set [2] (setting [8]) was determined as 43.8 µM.

Take `O=C1CC(=O)N(C2CCCCC2)C(=O)N1CCc1cccc(Cl)c1` [Compound 3, N-(3-chlorophenethyl)-N′-cyclohexyl-pyrimidine-2,4,6-(1H,3H,5H)-trione]: the melting point fell in the range of 153 to 154 °C. Besides, in data set [1] (setting [3]), the IC50 was 1.4 µM. In data set [1] (setting [4]), the IC50 came to 1.4 µM. The Selectivity in data set [1] (setting [5]) was 38. Besides, in data set [1] (setting [6]), the Selectivity amounted to 38.0. Also, in data set [2] (setting [7]), the IC50 was determined as 53.1 µM. In addition, the IC50 in data set [2] (setting [8]) turned out to be 53.1 µM.

Compound `Cc1cccc(CCN2C(=O)CC(=O)N(C3CCCCC3)C2=O)c1` [Compound 4, N-cyclohexyl-N′-(3-methylphenethyl)-pyrimidine-2,4,6-(1H,3H,5H)-trione] gave a melting point of 182 to 183 °C. Besides, the IC50 in data set [1] (setting [4]) amounted to 2.2 µM. Also, the IC50 in data set [1] (setting [9]) was 2.2 µM. Also, the Selectivity in data set [1] (setting [5]) was 35. Besides, in data set [1] (setting [10]), the Selectivity is given as 35.4. Also, in data set [2] (setting [8]), the IC50 was 77.1 µM. In addition, the IC50 in data set [2] (setting [11]) is 77.1 µM.

Compound `O=C1CC(=O)N(C2CCCCC2)C(=O)N1CCc1cccc(Br)c1` [Compound 5, N-(3-bromophenethyl)-N′-cyclohexyl-pyrimidine-2,4,6-(1H,3H,5H)-trione] showed a melting point of 154 to 155 °C. Further, the half-maximal inhibitory concentration (IC50) in data set [1] (setting [4]) was 1.3 µM. Besides, the half-inhibitory concentration (IC50) in data set [1] (setting [9]) came out at 1.3 µM. The Selectivity in data set [1] (setting [5]) was 34. Further, the Selectivity in data set [1] (setting [10]) came to 34.0. In addition, the IC50 in data set [2] (setting [8]) was determined as 45.8 µM. In data set [2] (setting [11]), the IC50 turned out to be 45.8 µM.

For `O=C1CC(=O)N(C2CCCCC2)C(=O)N1CCc1cccc(C(F)(F)F)c1` [Compound 6, N-cyclohexyl-N′-(3-thrifluoromethylphenethyl)-pyrimidine-2,4,6-(1H,3H,5H)-trione], the melting point was in the range of 105 to 107 °C. Also, the IC50 in data set [1] (setting [4]) turned out to be 1.3 µM. Further, the IC50 in data set [1] (setting [9]) was found to be 1.3 µM. The Selectivity in data set [1] (setting [5]) is 20. In addition, in data set [1] (setting [10]), the Selectivity is listed as 20.3. Moreover, the IC50 in data set [2] (setting [8]) came out at 25.8 µM. In addition, the IC50 in data set [2] (setting [11]) stood at 25.8 µM.

`O=C1CC(=O)N(C2CCCC2)C(=O)N1CCc1cccc(C(F)(F)F)c1` [Compound 7, N-cyclopentyl-N′-(3-thrifluoromethylphenethyl)-pyrimidine-2,4,6-(1H,3H,5H)-trione] had a melting point of 97 to 98 °C. In addition, the IC50 in data set [1] (setting [4]) turned out to be 1.1 µM. For the same compound, the IC50 in data set [1] (setting [12]) was 1.1 µM. Moreover, the Selectivity in data set [1] (setting [5]) is listed as 305. Further, the Selectivity in data set [1] (setting [13]) stood at 305.4. Also, in data set [2] (setting [8]), the IC50 amounted to 326 µM. For the same compound, in data set [2] (setting [14]), the IC50 is 326 µM.

`O=C1CC(=O)N(c2cccc(F)c2)C(=O)N1CCc1cccc(Cl)c1` [Compound 103]: the IC50 in data set [1] (setting [12]) stood at 18.6 µM; in data set [2] (setting [14]), 9.7 µM. Also, in data set [1] (setting [13]), the Selectivity came out at 0.5.

Turning to `CC(C)(C)N1C(=O)CC(=O)N(CCc2cccc(Cl)c2)C1=O` [Compound 105], the IC50 in data set [1] (setting [12]) came to 10.5 µM; in data set [2], 7.2 µM. Moreover, the Selectivity in data set [1] (setting [13]) is on record as 0.7.

As to `CC(C)(C)N1C(=O)CC(=O)N(CCc2cccc(C(F)(F)F)c2)C1=O` [Compound 106], the IC50 in data set [1] (setting [12]) worked out at 1.1 µM; in data set [2] (setting [14]), 6.1 µM. In addition, the Selectivity in data set [1] (setting [13]) is 5.7.

For `CCC(C)N1C(=O)CC(=O)N(CCc2cccc(Cl)c2)C1=O` (stereo not shown) [Compound 107], the IC50 was determined as 1.9 µM in data set [1] (setting [12]) and 45.4 µM in data set [2]. Besides, the Selectivity in data set [1] (setting [13]) is recorded as 23.6.

`CCC(C)N1C(=O)CC(=O)N(CCc2cccc(C(F)(F)F)c2)C1=O` (stereo not shown) [Compound 108]: the figures for the IC50 in data set [1] (setting [12]) and in data set [2] (setting [14]) were 3.4 µM and 35.9 µM, respectively. Further, the Selectivity in data set [1] (setting [13]) amounted to 10.5.

For the compound `O=C1CC(=O)N(CC2CCCCC2)C(=O)N1CCc1cccc(Cl)c1` [Compound 109], the IC50 in data set [1] (setting [12]) was 1.5 µM; in data set [2] (setting [14]) it was 44.6 µM. Besides, the Selectivity in data set [1] (setting [13]) is given as 30.5.

With `O=C1CC(=O)N(CC2CCCCC2)C(=O)N1CCc1ccc(Cl)cc1` [Compound 110], the figures for the IC50 in data set [1] (setting [12]) and in data set [2] (setting [14]) were 1.7 µM and 46.8 µM, respectively. Besides, the Selectivity in data set [1] (setting [13]) stood at 27.3.

Consider `O=C1CC(=O)N(CC2CCCCC2)C(=O)N1CCc1cccc(C(F)(F)F)c1` [Compound 111], for which the IC50 in data set [1] (setting [12]) was 0.9 µM; in data set [2] (setting [14]), 20.4 µM. The Selectivity in data set [1] (setting [13]) was 22.1.

On to `O=C1CC(=O)N(C23CC4CC(CC(C4)C2)C3)C(=O)N1CCc1ccc(Cl)cc1` [Compound 114], for which the IC50 in data set [1] (setting [12]) worked out at 3.2 µM; in data set [2] (setting [14]), 2.6 µM. Further, in data set [1] (setting [13]), the Selectivity was found to be 0.8.

On to `O=C1CC(=O)N(C23CC4CC(CC(C4)C2)C3)C(=O)N1CCc1cccc(Cl)c1` [Compound 115], for which the results for the IC50 in data set [1] (setting [12]) and in data set [2] (setting [14]) were 2.6 µM and 1.9 µM, respectively. Besides, the Selectivity in data set [1] (setting [13]) came to 0.7.

Take `O=C1CC(=O)N(C2C3CC4CC(C3)CC2C4)C(=O)N1CCc1ccc(Cl)cc1` (stereo not shown) [Compound 116]: the IC50 in data set [1] (setting [12]) was found to be 2.5 µM; in data set [2] (setting [14]) it was 40.4 µM. Further, the Selectivity in data set [1] (setting [13]) came to 18.3.

`O=C1CC(=O)N(C2C3CC4CC(C3)CC2C4)C(=O)N1CCc1cccc(Cl)c1` (stereo not shown) [Compound 117]: the IC50 was 1.6 µM in data set [1] (setting [12]) and 3.1 µM in data set [2] (setting [14]). Moreover, the Selectivity in data set [1] (setting [13]) worked out at 2.0.

As usually defined, the IC50 is the midpoint of a concentration-inhibition curve. In general, melting point refers to the temperature of the solid-liquid transition.

(Values after patent US20210186970A1, “SELECTIVE CALCIUM CHANNEL ANTAGONISTS” (Northwestern University, priority 2011, published 2021).)
